Several values for one entry are separate records, joined by “and”; a condition that tells them apart may be missing. Equal values may be shown once.
Columns and labels:
Type in all cases: cell-based
C2C12 cells = assay: C2C12 myogenic assay; parameters: key to myogenic assay: + indicates that the compound had an effect; -: − indicates that there was no significant effect in the respective assay; key to mean fusion index: ratio of nuclei fused per area to total nuclei in field; settings: for mean MFI / ratio MFI/MBI: MYH4; for ratio nuclei % / ratio MFI/MBI: single images; for myogenic diff.: overview in comparison to compound C, Supplemental Fig. 9; for MYH4 (MFI) / fusion index, % of DMSO control: Fig. 5, equals mean of the two '% of control' values of the 4th table; for myogenic assay: summary Fig. 8E
From the text: To corroborate their status as Notch inhibitors, we tested four of the five compounds (A, C, D, E) in an orthogonal assay for Notch function. Notch signalling plays an important role in myogenic differentiation, and blocking Notch signalling promotes myogenic differentiation in the myoblast cell line C2C12[27] (Fig. 5A). C2C12 cells can be maintained as myoblasts but upon serum starvation spontaneously differentiate to MYH4-positive multinucleated myotubes, a process which is accelerated by Notch blockade.
8000 C2C12 cells were seeded on gelatin (0.1%, Sigma-Aldrich, cat #G2500) coated cover slides (BD Bioscience) and cultivated in proliferation medium. For gelatin coating, 8-well cover slide chambers (BD Bioscience) were incubated for 60 min with 0.1% gelatin in PBS. The remaining liquid was aspirated, and gelatin was allowed to dry for 24 h. Cover slides were stored at 4 °C until use. Upon reaching 85% confluence cell culture medium was exchanged to differentiation medium to enhance differentiation into myocytes/myotubes. Cells were then treated with 10 µM of the respective compound for five days and DMSO-treated cells served as a base-line control. Next, cells were washed with 1 × cold PBS (ThermoFisher, cat #10010023) fixed with 4% paraformaldehyde (PFA, Sigma-Aldrich, cat #1.00496) in PBS for 10 min at room temperature and washed again with 1 × PBS. Fixed cells were either stored at 4 °C in PBS or directly processed for immunocytochemistry staining: For immunocytochemistry, cells were permeabilized for 10 min in 0.1% TritonX-100 / PBS, then washed in PBS and unspecific bindings sites were blocked in protein free blocking solution (DAKO, cat # × 0909) for 30 min at room temperature, followed by two times washing in PBS. Then, cells were incubated with primary antibody MYH4 (ThermoFisher) in blocking solution and 0.1% TritonX-100 in PBS for 1 h at room temperature. Next, cells were washed three times in PBS and incubated with secondary Alexa fluorophore coupled antibody (Invitrogen) in a 1:400 dilution. Labeling of F-actin filaments was conducted by phalloidin-TRITC (Sigma-Aldrich, cat # P1951) in a 1:2500 dilution. Cells were washed three times in PBS and incubated with DAPI (BD Bioscience cat # 564907) for 5 min at room temperature to stain DNA/nuclei. Finally, slides were fixed with mounting medium (ProLong Antifade mounting medium, ThermoFisher, cat #P36934). Bright field and immunocytochemistry images were taken using the SP8 LSM (Leica) at different magnifications and images were recorded as Z-stacks. Images were processed using the FijI (ImageJ) software. As controls, wells with and without differentiation medium were also stained to set the baseline and contrast the differences and stainings of cells with only secondary antibodies were used as negative controls to assess cross-reactivity and background staining. For calculating the MYH4 median fluorescence intensity (MFI) images have been converted into 8-bit greyscale and a standard color threshold was applied (ImageJ). Next, MFI signals per area were measured using ImageJ and divided by the median background intensity (MBI). The nuclei fusion index was calculated as the ratio of nuclei fused per area divided by the total number of nuclei in the field. A minimum of three images has been recorded for the calculations, and two replicate experiments were conducted. For calculations of MFI and fusion index see Supplemental Table 5.

MDA-MB-231 cells = assay: Three dose response gene expression analysis (qRT-PCR); settings: 0.1, 1 and 10 µM, 24 h
Description: (§1) Total RNA from cell lines was isolated using the RNeasy Mini kit (cat #74104, Qiagen), according to the manufacturer’s instructions. qRT-PCR was performed as described elsewhere[51] with some minor modifications: RNA was reverse transcribed to cDNA using iScript Reverse Transcription Supermix (cat # 1708841, Bio-rad). cDNA was then diluted 1:5 in nuclease free H20. qRT-PCR was performed on a C1000 Touch thermal cycler (Bio-rad) and gene expression was detected with SsoAdvanced Universal SYBR Green Supermix (cat # 1725274, Bio-rad). Gene expression was determined by normalizing to GAPDH mRNA expression levels and fold expression change was calculated using the ΔΔCT method (ΔΔCT = ΔCt sample − Δct control). Primers used in qPCR are shown in Supplemental Table 9.
(§2) Adherent breast cancer cells were seeded in 24-well cell culture plates (ThermoFisher, Nunc, Delta surface, cat #144530) and T-ALL cells growing in suspension (Jurkat, RPMI-8402) were seeded in non-adherent 24-well plates (ThermoFisher, Nunc, cat […]). 60.000 cells were seeded and treated with 0.1, 1 and 10 µM of each compound. […] Cells were harvested 24 h post treatment and RNA isolation and gene expression analysis (qRT-PCR) was performed as described above.

[1] = system: T-ALL cells (Jurkat, RPMI-8402); assay: as above; settings: 0.1, 1 and 10 µM, 24 h; for c-MYC expression: T-ALL cell lines; for HES1 and c-MYC expression: T-ALL cells
Description: as §1, §2

[2] = system: Notch downstream genes in tumour cell lines; assay: Three dose response gene expression analysis (qRT-PCR), panel of cell lines; parameters: key to gene expression: + indicates that the compound had an effect; -: − indicates that there was no significant effect in the respective assay; settings: for Notch targets: overview in comparison to compound C, Supplemental Fig. 9; for gene expression: summary Fig. 8E
Description: as §1, §2

NOTCH1 = assay: Western blot analysis of S3-cleaved NOTCH1 (a-N1-V1744); settings: for V1744 (activated N1) band intensity / V1744 normalised to beta-actin signals / V1744, DMSO as reference: Western blot quantification, Supplemental Figure 4K; for V1744, DMSO as reference: DMSO = 1
Description: Cells were washed in ice-cold PBS and incubated for 30 min on ice with RIPA cell lysis buffer (Thermofisher, cat #89900) containing protease and phosphatase inhibitors (Thermofisher, cat #78442), scraped off and homogenized using a 25G syringe, and subsequently centrifugated for 10 min at > 13,000xg. […] After electrophoresis, gels were placed directly onto a TransBlot Turbo PVDF or nitrocellulose membrane (Bio-rad, cat #1704157 and cat #1704159) and transferred using the “HIGH MW” protocol (Bio-Rad). Subsequently, membranes were blocked for 1 h at room temperature using Clear Milk Blocking Buffer (ThermoFisher, cat #37587) supplemented with 0.1% Tween20 (Sigma-Aldrich, cat #P1379). Detection of antibody binding was performed by using Clarity Western ECL-Substrate (Bio-rad, cat #1705060S). Beta-Actin protein signals were used as a loading control. Western blot membranes were in some experiments stripped after development (indicated in the figure in each respective case) by washing the membranes twice for 10 min in PBS, followed by incubation in membranes in western blot stripping buffer (ThermoFisher, cat #21059) for 30 min at room temperature and gentle agitation. Stripped membranes were washed twice with PBS and incubated for 30 min in blocking buffer before incubation with primary antibody. A list of all antibodies used in this study is provided in Supplemental Table 6. Uncropped western blot images are provided in […]. Protein expression levels of western blot bands were quantified using Fiji (V.2.16) with beta-Actin signals for normalisation (Supplemental Table 8). Uncropped western blot images are provided in Supplemental Fig. 10.

[3] = 10 µM, five days, DMSO ctrl = 100, experiments #1 and #2
[4] = 10 µM, five days, experiments #1 and #2
[5] = 10 µM, five days, experiments #1 and #2, listed as GSI

Row | Compound | expression of the differentiation marker MYH4 (C2C12 cells; 10 µM, five days) | mean MFI in % of control (C2C12 cells; [3]) | mean MFI (C2C12 cells; [4]) | mean fusion index (C2C12 cells; [4]) | ratio nuclei % (C2C12 cells; [4]) | myogenic diff. (C2C12 cells) | c-MYC expression (MDA-MB-231 cells) | Notch targets [2] | V1744 (activated N1) band intensity (NOTCH1) | V1744 normalised to beta-actin signals (NOTCH1) | V1744, DMSO as reference (NOTCH1) | MYH4 (MFI) (C2C12 cells; 10 µM, five days) | fusion index, % of DMSO control (C2C12 cells; 10 µM, five days) | myogenic assay (C2C12 cells) | HES4 expression (MDA-MB-231 cells) | transcript levels of the Notch ligand Jagged1 (MDA-MB-231 cells) | gene expression [2] | HES1 and c-MYC expression [1] | other results
1 | CC(C)(C)c1ccc(Oc2ccc(N)cn2)cc1 [CB-103, reference compound] | increased MYH4 levels, although not reaching statistical significance | 378.0 % of control and 227.3 % of control | 3.6 and 4.6 | 5.7 and 3.1 | 5.0% and 6.3% and 5.7% and 3.1% | no | trend towards upregulation | condition dependent | 20841.8 | 0.8 | 0.6093 |  |  |  |  |  |  |  | c-MYC expression [1]: reduced
2 | C[C@H](NC(=O)Cc1cc(F)cc(F)c1)C(=O)N[C@H](C(=O)OC(C)(C)C)c1ccccc1 [DAPT, reference compound] |  |  |  |  |  |  |  |  |  |  |  |  |  |  |  |  |  |  | S3-processing of Notch1ΔE (Western blot) (NOTCH1; clone A (#A1-11), Fig. 1F): almost completely abolished
3 | CC(C)(C(=O)NCC(F)(F)C(F)(F)F)C(=O)N[C@@H]1C(=O)Nc2ccccc2-c2ccccc21 [RO4929097, reference compound] | elevated expression |  |  |  |  | yes | did not reduce | condition dependent | 4624.07 | 0.211 | 0.1638 |  |  |  |  |  |  |  | mean MFI in % of control (C2C12 cells; 10 µM, five days, DMSO ctrl = 100, experiments #1 and #2, listed as GSI): 296.5 % of control and 351.1 % of control; mean MFI (C2C12 cells; [5]): 5.5 and 3.6; mean fusion index (C2C12 cells; [5]): 6.7 and 4.2; ratio nuclei % (C2C12 cells; [5]): 6.3% and 6.4% and 7.6% and 4.9% and 3.4%; c-MYC expression [1]: consistently reduced; HES1 and HES4 target gene expression ([2]; across the panel of cell lines): consistently reduced
4 | CCc1c(C(=O)N(C)Cc2cnn(C(C)C)c2)[nH]c2ccccc12 [compound A] | elevated expression | 469.2 % of control | 7.4 and 5.9 | 4.1 and 7.3 | 2.9% and 4.4% and 7.7% and 8.1% and 6.0% and 5.0% |  |  |  | 20296.9 | 1.0 | 0.806 | 476.6 | 210.8 | + | reduced | reduced | - |  | ratio MFI/MBI (C2C12 cells; [4]): 6.1 and 6.4 and 7.3 and 7.5 and 5.2; activity at 10 µM (C2C12 cells; Mus musculus, C2C12, 120 h, 10 µM, five days, DMSO ctrl = 100, experiments #1 and #2, read-out: mean MFI in % of control): 484%; HES1 expression (MDA-MB-231 cells): downregulated
5 | Cc1ccc2[nH]c3c(c2c1)CCOC31CCN(Cc2ccccc2-c2ccccc2)CC1 [compound B] |  |  |  |  |  |  |  |  | 10802.4 | 0.6 | 0.4585 |  |  | - | reduced | reduced | + | dose-dependent downregulation | 
6 | COc1cccc(CNc2ccc(N3CCCCC3)cc2)c1OCc1cccs1 [compound C] | elevated expression | 343.9 % of control and 318.1 % of control | 4.2 | 5.3 | 3.3% and 7.3% | yes | downregulation | condition dependent | 14466.8 | 0.8 | 0.5945 | 331.0 | 268.7 | + | upregulated |  | + | dose-dependent downregulation | ratio MFI/MBI (C2C12 cells; [4]): 4.0 and 4.4
7 | NC(=O)c1c(NC(=O)NCc2cccnc2)sc2c1CCC2 [compound D] | did not produce elevated MYH4 levels |  |  |  |  |  |  |  | 30696.5 | 1.2 | 0.9101 | 108.7 | 153.2 | - | reduced | reduced | + | dose-dependent downregulation | HES1 expression (MDA-MB-231 cells): downregulated
